How the values were obtained:
human CD3+ T cells [1] = settings: T cells pre-incubated with 0.01 μM to 10 mM AMD3100; tumor cells in Transwell; harvest after 3 h
Method: For quantitative transmigration assays, purified human CD3^+ T cells (approximately 2×10^4 cells) are added to the upper chamber of a Transwell® insert in each well, to a total volume of 150 μl of Iscove's modified medium.
To determine the anti-fugetactic concentration of AMD3100, the T cells are incubated with 0.01 μM to 10 mM AMD3100 prior to addition to the chamber.
Cells are harvested from the lower chamber after 3 h, and cell counts are performed using a hemocytometer.

human CD3+ T cells [2] = settings: CI of 1.0 is the control, triplicate wells
Method: Freshly prepared and purified human CD3^+ T cells were prepared from healthy donor peripheral blood. 20,000 T cells were loaded into the upper chamber of the Transwell in control, chemotactic or fugetactic settings with AMD3100 at concentrations between 0.1 μM and 10 μM. Migrated cells were counted in the lower chamber and migration quantitated as previously described. Vianello et al. The Journal of Immunology, 2006, 176: 2902-2914; Righi et al., Cancer Res.; 71(16); 5522-34, each of which is incorporated herein in its entirety.
We saw clear evidence of binary or bimodal chemotactic (FIG. 1; CI 2.3 at 1 μM) and fugetactic (FIG. 2; CI=1.6 at 0.1 μM) responses of human CD3+ T cells to AMD3100 (where a CI or chemotactic index of 1.0 is the control). All wells were run in triplicate.

## c1cc(CN2CCCNCCNCCCNCC2)ccc1CN1CCCNCCNCCCNCC1 [AMD3100, 1,1′-[1,4-phenylenebis(methylene)]bis [1,4,8,11-tetraazacyclotetradecane]]
Human CD3+ T cells [1]
  effect on T cell migration (anti-fugetactic at lower, fugetactic at higher concentrations): bimodal effect
Human CD3+ T cells [2]; chemotactic setting, AMD3100 at 1 μM, FIG. 1
  CI (chemotactic index), chemotactic response: 2.3
Human CD3+ T cells [2]; fugetactic setting, AMD3100 at 0.1 μM, FIG. 2
  CI (chemotactic index), fugetactic response: 1.6

— US20180256541A1, “COMPOSITIONS HAVING ANTI-FUGETACTIC PROPERTIES FOR TREATMENT OF CANCER” (THE GENERAL HOSPITAL CORPORATION DBA MASSACHUSETTS GENERAL …, priority 2015, published 2018)
